What was measured:
[1] = biological target: T1, 5-HT1a (human recombinant receptor, CHO-K1) (Homo sapiens, UniProt P08908); assay: Radioligand binding assay, 5-HT1a
T1 sequence (P08908 1-422): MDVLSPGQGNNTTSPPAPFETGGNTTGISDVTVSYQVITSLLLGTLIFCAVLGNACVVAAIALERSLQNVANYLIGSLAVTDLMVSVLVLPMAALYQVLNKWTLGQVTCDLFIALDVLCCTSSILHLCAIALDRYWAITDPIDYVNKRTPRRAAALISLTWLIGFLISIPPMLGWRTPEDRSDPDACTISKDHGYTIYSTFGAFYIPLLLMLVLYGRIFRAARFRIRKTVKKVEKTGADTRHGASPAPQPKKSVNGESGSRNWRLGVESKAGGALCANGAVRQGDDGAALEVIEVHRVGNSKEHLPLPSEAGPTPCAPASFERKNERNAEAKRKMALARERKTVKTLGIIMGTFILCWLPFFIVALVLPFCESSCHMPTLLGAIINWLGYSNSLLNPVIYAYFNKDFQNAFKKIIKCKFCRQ

D4 (hD4.2 receptor) = biological target: T2, D4 (hD4.2 receptor) (Homo sapiens, UniProt P21917, DEL265-296); assay: Radioligand binding assay, dopamine D4; conditions: [3H] YM-09151-2 0.06 nM; read-out: Binding affinity IC50 D4
T2 construct: purchased BioSignal Packard Inc., Montreal, Canada
T2 sequence (P21917 with tags, fused parts or gaps DEL265-296): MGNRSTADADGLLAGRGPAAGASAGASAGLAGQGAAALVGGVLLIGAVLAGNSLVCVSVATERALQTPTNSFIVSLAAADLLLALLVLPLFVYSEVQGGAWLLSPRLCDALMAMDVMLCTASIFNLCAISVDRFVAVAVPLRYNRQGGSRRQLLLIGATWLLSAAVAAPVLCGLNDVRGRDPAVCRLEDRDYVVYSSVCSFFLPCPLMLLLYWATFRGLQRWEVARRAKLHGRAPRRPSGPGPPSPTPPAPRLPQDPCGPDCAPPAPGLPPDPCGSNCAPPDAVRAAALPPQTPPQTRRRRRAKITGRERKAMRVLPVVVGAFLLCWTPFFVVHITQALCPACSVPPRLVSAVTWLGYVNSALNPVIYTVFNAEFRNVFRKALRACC
Protocol: (§1) Radioligand binding assays for dopamine receptor family (D1, D2 and D3) were performed according to the protocols provided by the manufacturer of receptor membranes (BioSignal Packard Inc., Montreal, Canada). The radioligands used were [^3H] spiperone (for hD2L and hD3 receptors, 1 nM) and [^3H] YM-09151-2 (hD4.2 receptor, 0.06 nM). Briefly, the buffer used in the D1, D2 and D3 receptor binding assay was 50 mM Tris-HCl (pH 7.4), containing 10 mM MgCl2 and 1 mM EDTA, or 50 mM Tris-HCl (pH 7.4), containing 5 mM MgCl2, 5 mM EDTA, 5 mM KCl, 1.5 mM CaCl2 and 120 mM NaCl. For [^3H] YM-09151-2 receptor binding assays, 50 mM Tris-HCl (pH 7.4) containing 5 mM MgCl2, 5 mM EDTA, 5 mM KCl and 1.5 mM CaCl2, was used as a buffer. Nonspecific binding was determined with haloperidol (10 μM) for D2 and D3 and clozapine (10 μM) for D4 receptors.
(§2) Competition binding studies were carried out with 7-8 concentrations of the test compound run in duplicate tubes, and isotherms from three assays were calculated by computerized nonlinear regression analysis (GraphPad Prism Program, San Diego, […]) to yield median inhibitory concentration (IC50) values.

[2] = biological target: 5-HT7 (human recombinant receptor, CHO-K1) (Homo sapiens, UniProt P34969); assay: Radioligand binding assay, 5-HT7
[3] = biological target: T3, 5-HT2c (human recombinant receptor, CHO-K1) (Homo sapiens, UniProt P28335); assay: Radioligand binding assay, 5-HT2c
T3 sequence (P28335 33-458): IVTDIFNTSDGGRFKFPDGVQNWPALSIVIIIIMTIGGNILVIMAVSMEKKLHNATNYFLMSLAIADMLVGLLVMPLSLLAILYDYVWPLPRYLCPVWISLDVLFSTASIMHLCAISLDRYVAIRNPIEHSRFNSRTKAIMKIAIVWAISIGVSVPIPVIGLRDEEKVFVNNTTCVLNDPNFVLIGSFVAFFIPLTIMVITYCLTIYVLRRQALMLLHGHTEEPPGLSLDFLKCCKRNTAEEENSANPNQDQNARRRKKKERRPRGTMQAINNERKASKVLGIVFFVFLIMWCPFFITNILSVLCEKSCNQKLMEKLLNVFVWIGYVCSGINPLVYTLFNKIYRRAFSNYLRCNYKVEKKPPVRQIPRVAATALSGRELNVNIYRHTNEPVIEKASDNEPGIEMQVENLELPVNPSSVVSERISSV

D3 (hD3 receptor) = D3 (hD3 receptor) (Homo sapiens, UniProt P35462); assay: Radioligand binding assay, dopamine D3
[4] = biological target: human serotonin 5-HT6 receptor (Homo sapiens, UniProt P50406); assay: [3H]LSD binding assay for cloned 5-HT6 receptors
D2 (hD2L receptor) = biological target: T4, D2 (hD2L receptor) (Homo sapiens, UniProt P14416); assay: Radioligand binding assay, dopamine D2; conditions: [3H] spiperone 1 nM; read-out: Binding affinity IC50 D2
T4 construct: purchased BioSignal Packard Inc., Montreal, Canada
Protocol: as §1, §2

[5] = biological target: 5-HT2a (human recombinant receptor, CHO-K1) (Homo sapiens, UniProt P28223); assay: Radioligand binding assay, 5-HT2a
Chain of 5-HT2a (human recombinant receptor, CHO-K1) (P28223 whole entry): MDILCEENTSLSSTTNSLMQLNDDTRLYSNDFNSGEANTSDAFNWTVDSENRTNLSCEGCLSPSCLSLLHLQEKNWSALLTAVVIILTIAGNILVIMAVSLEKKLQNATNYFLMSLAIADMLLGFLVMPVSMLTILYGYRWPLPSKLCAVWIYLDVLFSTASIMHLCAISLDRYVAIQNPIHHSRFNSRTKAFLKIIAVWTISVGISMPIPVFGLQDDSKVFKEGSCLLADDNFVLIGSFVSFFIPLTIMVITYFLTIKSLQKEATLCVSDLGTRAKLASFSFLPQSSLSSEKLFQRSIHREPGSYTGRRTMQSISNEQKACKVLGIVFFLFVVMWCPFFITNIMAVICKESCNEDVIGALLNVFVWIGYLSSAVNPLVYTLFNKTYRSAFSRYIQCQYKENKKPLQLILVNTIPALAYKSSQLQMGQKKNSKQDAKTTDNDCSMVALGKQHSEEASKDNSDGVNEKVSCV

Chain of human serotonin 5-HT6 receptor (P50406 whole entry): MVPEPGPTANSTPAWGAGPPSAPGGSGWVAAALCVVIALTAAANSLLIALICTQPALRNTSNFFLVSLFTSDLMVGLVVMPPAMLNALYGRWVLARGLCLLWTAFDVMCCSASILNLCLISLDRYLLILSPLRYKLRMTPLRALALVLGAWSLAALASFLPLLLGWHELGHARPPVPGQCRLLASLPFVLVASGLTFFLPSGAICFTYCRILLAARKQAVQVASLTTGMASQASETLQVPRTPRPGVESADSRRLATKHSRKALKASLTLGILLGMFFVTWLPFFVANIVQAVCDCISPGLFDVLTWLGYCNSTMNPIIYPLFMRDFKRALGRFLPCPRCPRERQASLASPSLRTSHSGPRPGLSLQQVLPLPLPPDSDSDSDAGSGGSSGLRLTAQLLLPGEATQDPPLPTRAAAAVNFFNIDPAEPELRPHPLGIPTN
T4 sequence (P14416 whole entry): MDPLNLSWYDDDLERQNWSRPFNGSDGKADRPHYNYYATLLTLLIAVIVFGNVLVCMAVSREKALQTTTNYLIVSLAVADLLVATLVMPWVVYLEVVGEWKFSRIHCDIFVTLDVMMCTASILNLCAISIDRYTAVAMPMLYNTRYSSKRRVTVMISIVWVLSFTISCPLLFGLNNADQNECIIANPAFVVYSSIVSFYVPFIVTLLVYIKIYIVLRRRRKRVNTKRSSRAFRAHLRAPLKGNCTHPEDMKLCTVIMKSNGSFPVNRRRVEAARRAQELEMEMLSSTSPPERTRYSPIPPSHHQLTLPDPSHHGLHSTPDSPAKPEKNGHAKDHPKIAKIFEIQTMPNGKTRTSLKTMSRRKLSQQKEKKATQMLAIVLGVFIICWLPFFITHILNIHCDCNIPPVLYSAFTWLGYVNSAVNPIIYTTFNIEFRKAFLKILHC
Chain of D3 (hD3 receptor) (P35462 whole entry): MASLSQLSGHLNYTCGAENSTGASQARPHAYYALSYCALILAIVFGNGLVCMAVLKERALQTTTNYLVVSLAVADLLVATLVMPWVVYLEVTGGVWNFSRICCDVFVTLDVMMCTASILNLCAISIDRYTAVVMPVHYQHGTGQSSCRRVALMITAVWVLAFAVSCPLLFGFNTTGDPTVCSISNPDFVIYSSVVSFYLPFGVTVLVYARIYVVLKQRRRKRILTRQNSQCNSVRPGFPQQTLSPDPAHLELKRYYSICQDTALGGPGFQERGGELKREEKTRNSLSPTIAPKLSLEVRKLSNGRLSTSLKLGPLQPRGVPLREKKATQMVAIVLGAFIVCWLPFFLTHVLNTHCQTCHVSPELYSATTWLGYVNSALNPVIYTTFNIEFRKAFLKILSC
Chain of 5-HT7 (human recombinant receptor, CHO-K1) (P34969 whole entry): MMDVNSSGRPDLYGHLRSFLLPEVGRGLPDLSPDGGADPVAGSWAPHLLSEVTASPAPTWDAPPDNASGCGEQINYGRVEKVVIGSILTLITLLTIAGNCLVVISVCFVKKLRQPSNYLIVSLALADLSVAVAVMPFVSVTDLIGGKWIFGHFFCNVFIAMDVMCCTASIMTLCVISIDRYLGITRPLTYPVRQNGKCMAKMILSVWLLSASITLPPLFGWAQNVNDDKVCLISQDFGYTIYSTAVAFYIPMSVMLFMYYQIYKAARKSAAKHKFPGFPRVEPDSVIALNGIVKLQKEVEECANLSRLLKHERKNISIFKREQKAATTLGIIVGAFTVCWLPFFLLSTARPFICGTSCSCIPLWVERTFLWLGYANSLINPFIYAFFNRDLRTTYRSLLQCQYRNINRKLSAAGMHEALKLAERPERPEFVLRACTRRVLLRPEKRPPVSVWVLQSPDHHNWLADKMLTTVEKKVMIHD

Row | SMILES | IC50 [1] [nM] | IC50 (D4 (hD4.2 receptor)) [nM] | melting point [°C] | IC50 [2] [nM] | IC50 [3] [nM] | IC50 (D3 (hD3 receptor)) [nM] | IC50 [4] [nM] | IC50 (D2 (hD2L receptor)) [nM] | IC50 [5] [nM]
1 | CN1CCN(c2cc(Cl)cc3c2c(=O)n(Cc2cccc(F)c2)c(=O)n3Cc2ccccc2)CC1 [Example 12, 1-benzyl-7-chloro-3-(3-fluoro-benzyl)-5-(4-methyl-piperazin-1-yl)-1H-quinazoline-2,4-dione] | 718 | > 10000 | 148 to 150 | 1670 | 1060 | 490 | 1.9 | > 10000 | 622
2 | CN1CCN(c2cc(Cl)cc3c2c(=O)n(Cc2ccccc2F)c(=O)n3Cc2ccccc2)CC1 [Example 11, 1-benzyl-7-chloro-3-(2-fluoro-benzyl)-5-(4-methyl-piperazin-1-yl)-1H-quinazoline-2,4-dione] | 1510 | > 10000 | 147 to 149 | 4840 | 176 | 2660 | 1.2 | > 10000 | 463
3 | O=c1c2c(N3CCNCC3)cc(Cl)cc2n(Cc2ccccc2)c(=O)n1Cc1ccccc1F [Example 58, 1-benzyl-7-chloro-3-(2-fluoro-benzyl)-5-piperazin-1-yl-quinazoline-2,4-dione] | 2850 | > 10000 | 98 to 109 | > 10000 | 540 | 3130 | 0.6 | > 10000 | 220
4 | COc1ccccc1Cn1c(=O)c2c(N3CCN(C)CC3)cc(Cl)cc2n(Cc2ccccc2)c1=O [Example 25, 1-benzyl-7-chloro-3-(2-methoxy-benzyl)-5-(4-methyl-piperazin-1-yl)-1H-quinazoline-2,4-dione] | 7080 | > 10000 | 91 to 96 | > 10000 | 925 | 1330 | 1.9 | > 10000 | 916
5 | CN1CCN(c2cc(Cl)cc3c2c(=O)n(Cc2cccc([N+](=O)[O-])c2)c(=O)n3Cc2ccccc2)CC1 [Example 32, 1-benzyl-7-chloro-5-(4-methyl-piperazin-1-yl)-3-(3-nitro-benzyl)-1H-quinazoline-2,4-dione] | 3800 | > 10000 | 200 to 205 | > 10000 | 1560 | 276 | 0.6 | > 10000 | 1800
6 | Cc1ccc(Cn2c(=O)c3c(N4CCN(C)CC4)cc(Cl)cc3n(Cc3ccccc3)c2=O)cc1 [Example 24, 1-benzyl-7-chloro-3-(4-methyl-benzyl)-5-(4-methyl-piperazin-1-yl)-1H-quinazoline-2,4-dione] | 3210 | > 10000 | 92 to 97 | > 10000 | 599 | 435 | 2 | > 10000 | 733
7 | CN1CCN(c2cc(Br)cc3c2c(=O)n(Cc2ccccc2)c(=O)n3Cc2ccccc2)CC1 [Example 54, 1,3-dibenzyl-7-bromo-5-(4-methyl-piperazin-1-yl)-1H-quinazoline-2,4-dione] | 5010 | > 10000 | 80 to 84 | > 10000 | 646 | 554 | 2.3 | > 10000 | 376
8 | CN1CCN(c2cc(Cl)cc3c2c(=O)n(Cc2ccc(Cl)cc2)c(=O)n3Cc2ccccc2)CC1 [Example 19, 1-benzyl-7-chloro-3-(4-chloro-benzyl)-5-(4-methyl-piperazin-1-yl)-1H-quinazoline-2,4-dione] | 3060 | > 10000 | 92 to 97 | 2210 | 321 | 1010 | 3.1 | 7740 | 1100
9 | CCCn1c(=O)c2c(N3CCN(C)CC3)cc(Cl)cc2n(Cc2ccccc2)c1=O [Example 3, 1-benzyl-7-chloro-5-(4-methyl-piperazin-1-yl)-3-propyl-1H-quinazoline-2,4-dione] | > 10000 | > 10000 | 120 to 121 | > 10000 | 3760 | 2110 | 2 | > 10000 | 718
10 | CCCCCCCCn1c(=O)c2c(N3CCN(C)CC3)cc(Cl)cc2n(Cc2ccccc2)c1=O [Example 7, 1-benzyl-7-chloro-5-(4-methyl-piperazin-1-yl)-3-octyl-1H-quinazoline-2,4-dione] | 2160 | > 10000 | 78 to 80 | 2560 | 1710 | 606 | 1.5 | 2760 | 1140

Source: patent US20090203708A1, “NOVEL SUBSTITUTED-1-H-QUINAZOLINE-2,4-DIONE DERIVATIVES, PREPARATION METHOD THEREOF AND PHARMACEUTICAL COMPOSITION CONTAINING THE SAME” (Korea Research Institute of Chemical Technology, priority 2006, published 2009)
